The test system of data set [1] is genotype 1 chronic HCV infection. In words: Phase 2a dose ranging study of SCV-07: HCV viral load. In kind it is in vivo, human. From the text:
(§1) Here we describe interim results from a phase 2a, proof of principle, multicenter, randomized, controlled, single-blind dose ranging study, which is evaluating the safety and antiviral effect of SCV-07 in non-cirrhotic subjects with genotype 1 chronic HCV infection. Subjects enrolled in the study must have relapsed to previous treatment with PEGylated interferon and ribavirin; therefore any change in HCV viral load of greater than 0.5 log could be considered a significant response.
(§2) Subjects are treated with 7 daily injections of SCV-07 (8 subjects per cohort) or saline (2 per cohort). […] Due to this apparent late response, a 30-day follow up visit was added for Cohort 3. Of the 4 subjects in this Cohort who have reached the 30-day visit, one has responded with a 1.2-log drop in HCV along with an increase in neopterin (see Table1).

The next data set relates to neopterin. In words: Phase 2a dose ranging study of SCV-07: plasma biomarker neopterin. In kind it is in vivo, human. The note with it: Cohort 3, 1.0 mg/kg (interim); single responding subject.
Excerpt: as §1, §2
A plasma concentration of neopterin above 10 nmol/L represents a “stimulated” immune system. […] Increased levels of neopterin also are correlated with increased sustained viral responses against HCV, and so is very strong evidence for the use of SCV-07 in this disease. The timing of the increase is also of interest.

Data set [2] can be described thus: Phase 2a dose ranging study of SCV-07: safety and tolerability. In kind it is in vivo, human.
Excerpt: as §1, §2
Further clinical investigation into longer treatment duration or addition to other anti-viral agents appears warranted.

Data set [3] relates to HCV. Nature of the data set: Combination treatment of hepatitis C patients, Examples 2-4. As to conditions: Example 4: 0.1-2.0 mg/kg/day with STAT-C and/or ribavirin and/or pegylated interferon alpha-2b or alpha-2a, up to 48 weeks. In kind it is in vivo, human. From the text: Treatment, as in the examples above, results in achieving a sustained virological response (SVR) (which is accepted as cure and used as the efficacy endpoint for FDA approval), of 65-75%. This compares favorably with the current SOC SVR of 45-50%. This improved SVR is achieved in a regimen that has much less toxicity when compared to SOC (interferon sparing).

Another data set concerns thymocyte and lymphocyte. The note with it: in vitro; cited from earlier work.
The subject of a further data set is spleen lymphocytes. As to conditions: cited from earlier work.
In the next data set the test system is bone marrow cells. The note with it: cited from earlier work.
Data set [4] relates to 5-FU-immune-suppressed animals. The note with it: cited from earlier work.
The next data set relates to sheep red blood cells. As to conditions: immunization with sheep red blood cells; cited from earlier work.
The next data set relates to STAT-3. As to conditions: cited from earlier work.
The test system of data set [5] is Th1 cytokines IFN-g and IL-2, Th2 cytokines IL-4 and IL-10. The note with it: cited from earlier work.
Another data set relates to Pichinde virus. The note with it: Pichinde virus in guinea pigs; cited from earlier work.
Data set [6] relates to Cottontail papilloma virus. The note with it: Cottontail papilloma virus in rabbits; cited from earlier work.
In the next data set the test system is herpes virus HSV-2. As to conditions: guinea pigs infected with herpes virus HSV-2; cited from earlier work.
The subject of data set [7] is HCV. As to conditions: cited from earlier work.
For data set [8], the system named is HCV genotype 1. As to conditions: 400 mg thrice daily, 14 days monotherapy, nonresponders to pegylated interferon alfa; cited from earlier work.
The test system of data set [9] is HCV genotype 1. The note with it: 400 mg thrice daily for 14 days with pegylated interferon alfa-2b, previous nonresponders; cited from earlier work.
The subject of data set [10] is HCV genotype 1. As to conditions: 1500-mg twice-daily, 14 days, treatment-naive; cited from earlier work.
Data set [11] relates to HCV genotype 1. The note with it: cited from earlier work.
Data set [12] relates to HCV. As to conditions: within 5 days of therapy; cited from earlier work.
For data set [13], the system named is HCV. As to conditions: higher doses (500-1500 mg/day); cited from earlier work.
Setting [14] is: 1500 mg twice daily for 14 days.
Setting [15] is: 3000 mg twice daily for 14 days.
[16] abbreviates: 4500 mg twice daily for 14 days.

Structures are written as SMILES. “Also recorded” adds a separate entry of the source. Read-outs that look alike come from different tables or passages of the source.

`N[C@H](CCC(=O)N[C@@H](Cc1c[nH]c2ccccc12)C(=O)O)C(=O)O` [SCV-07, γ-D-glutamyl-L-tryptophan]: in data set [1] (Cohort 1, 0.01 mg/kg), the “HCV viral load response” value was “no responses”. Further, in data set [1] (Cohort 2, 0.10 mg/kg, day 14 follow up visit), the “subjects with decrease in viral load and increase in neopterin” value came out at 2 subjects. Moreover, the “HCV viral load (log10 decrease) Day 30” value in [1] (Cohort 3, 1.0 mg/kg (interim), 7 daily injections, single responding subject, 30-day visit) is 1.2 log10. Further, the “drop in HCV” value in data set [1] (Cohort 3, one of 4 subjects at the 30-day visit) is on record as 1.2 log. Besides, the “Neopterin (nmol/L) Day 30” value in the data set with neopterin stood at 33 nmol/L. In addition, in data set [2] (all 3 dose groups), the SAEs reported result was “No SAEs were reported”, the “discontinuation of treatment due to AEs” value is given as “no subject had to discontinue treatment due to AEs” and the tolerability result is reported as “well tolerated”. Besides, in [2] (any of the subjects), the “changes in ALT from baseline” value is “No significant changes”. In the data set on HCV [3], the “response against HCV” value is on record as “improved response”. For the same compound, the “Con-A-induced thymocyte and lymphocyte proliferation” value with thymocyte and lymphocyte is recorded as “increases”. Further, in the data set with spleen lymphocytes, the “Con-A-induced interleukin-2 (IL-2) production and IL-2 receptor expression by spleen lymphocytes” value is on record as “increases”. Further, the “expression of Thy-1.2 on bone marrow cells” value in the data set with bone marrow cells is “stimulates expression”. In data set [4], the immunostimulatory effect entry was “strong immunostimulatory effect”. Besides, in the data set with sheep red blood cells, the immunostimulatory effect entry is recorded as “strong immunostimulatory effect”. For the same compound, in the data set on STAT-3, the “STAT-3 dependent signaling / STAT3 activity” value was “inhibition; also recorded: inhibit”. In [5], the “Th2 cytokines IL-4 and IL-10” value is “decreasing”; the “production of the Th1 cytokines IFN-g and IL-2” value is given as “increases”. Also, the survival result in the data set on Pichinde virus is recorded as “increased survival”. The survival entry in data set [6] is on record as “increased survival”. In addition, the recurrence entry in the data set with herpes virus HSV-2 is listed as “decreased recurrence”.

On to `COc1ccc2c(O[C@@H]3C[C@H]4C(=O)N[C@]5(C(=O)O)C[C@H]5/C=C\CCCCC[C@H](NC(=O)OC5CCCC5)C(=O)N4C3)cc(-c3csc(NC(C)C)n3)nc2c1` [BILN-2061], for which the “antiviral activity, HCV genotype 1” value in the data set with HCV [7] (HCV genotype 1) is listed as “potent antiviral activity”. In the data set with HCV [7] (HCV genotype 2 and 3), the “virologic response, HCV genotype 2 and 3 patients” value was “less pronounced and more variable”. In the data set on HCV [7] (phase 1), the “time of viral load reduction” value was not above 48 h.

As for `CC(C)(C)NC(=O)N[C@H](C(=O)N1C[C@H]2[C@@H]([C@H]1C(=O)NC(CC1CCC1)C(=O)C(N)=O)C2(C)C)C(C)(C)C` (stereo partly shown) [SCH503034], in the data set with HCV genotype 1 [8], the “drop in HCV RNA from the baseline value” is “approximately 2 log”. The “reduction in HCV RNA” value with HCV genotype 1 [9] is listed as 2.88 log.

For `CC(C)C(=O)OC[C@@]1(N=[N+]=[N-])O[C@@H](n2ccc(N)nc2=O)[C@H](OC(=O)C(C)C)[C@@H]1OC(=O)C(C)C` [R1626], the “reduction in HCV RNA” value in the data set on HCV genotype 1 [10] is “approximately 1.2 log”. The “Mean HCV viral reduction” value in the data set with HCV genotype 1 [11] (500 mg twice daily for 14 days) was 0.3 log 10; in the data set on HCV genotype 1 [11] (setting [14]) it was 1.2 log 10; in the data set with HCV genotype 1 [11] (setting [15]) it was 2.6 log 10; in the data set on HCV genotype 1 [11] (setting [16]) it was 3.7 log 10. Moreover, the “median HCV viral reduction” value is 0.2 log 10 with HCV genotype 1 [11] (500 mg twice daily for 14 days), 0.8 log 10 with HCV genotype 1 [11] (setting [14]), 2.7 log 10 in the data set with HCV genotype 1 [11] (setting [15]) and 4.1 log 10 in the data set on HCV genotype 1 [11] (setting [16]).

`CCCCCOc1ccc(NC(=S)NC(=O)c2cccnc2)cc1C(F)(F)F` [ACH-806]: in the data set with HCV [12], the “drop in HCV RNA” value is 2.38 log.

For the compound `CNC(=O)c1c(-c2ccc(F)cc2)oc2cc(N(CCO)S(C)(=O)=O)c(C3CC3)cc12` [HCV-796], in the data set with HCV [13], the “drop in the HCV RNA viral load” value is given as approximately 1.2 log.

(Values after US20110200558A1, “Treatment or Prevention of Hepatitis C with Immunomodulator Compounds” (priority 2008, published 2011).)
